Source: PMC7504417 (International Journal of Molecular Sciences, 2020)
Counter-ions that a name gives are not always drawn. Like-named read-outs stand apart in the source and are kept apart here.

Experiments:
[1] = target: reduced glutathione (Glut RED, ECG); assay: UV spectrophotometry binding to reduced glutathione; details: UV spectrophotometry at 200 nm, pH 7.00 phosphate-buffered saline, ca. 24 °C
[2] = target: oxidized glutathione (Glut OX, ECG-ECG); assay: UV spectrophotometry binding to oxidized glutathione; details: UV spectrophotometry; single value, or first (higher-affinity) value of a cell a/b; read-out: Kd (µM) Glut OX ECG-ECG
[3] = target: T1, beta 2 adrenergic receptor peptide B2AR 183–185 NCY (Homo sapiens, UniProt P07550); assay: biochemical; type: binding; details: Figure 4
T1 construct: B2AR 183–185 NCY; purchased RS Synthesis (Louisville, KY, USA); host or cells: chemical synthesis

[4] = target: T2, histamine 1 receptor peptide H1HR 77–87 GAVVMPMNILYL (Homo sapiens, UniProt P35367); assay: biochemical; type: binding; details: UV spectrophotometry; single value, or first (higher-affinity) value of a cell a/b; read-out: Kd (µM) H1HR 77–87 […]
T2 construct: H1HR 77–87 GAVVMPMNILYL; purchased RS Synthesis (Louisville, KY, USA); host or cells: chemical synthesis

[5] = target: T3, histamine 1 receptor peptide H1HR 105–108 SMDY (Homo sapiens, UniProt P35367); assay: biochemical; type: binding; details: UV spectrophotometry; single value, or first (higher-affinity) value of a cell a/b; read-out: Kd (µM) H1HR 105–108 SMDY
T3 construct: H1HR 105–108 SMDY; purchased RS Synthesis (Louisville, KY, USA); host or cells: chemical synthesis

[6] = target: T4, histamine 1 receptor peptide HIHR 177–183 RDKCETD (Homo sapiens, UniProt P35367, E177R); assay: biochemical; type: binding; details: UV spectrophotometry; read-out: Kd (µM) HIHR 177–183 RDKCETD
T4 construct: HIHR 177–183 RDKCETD; purchased RS Synthesis (Louisville, KY, USA); host or cells: chemical synthesis

[7] = target: Opioid Receptor (mu opioid receptor peptides) (Homo sapiens, UniProt P35372); assay: Overall pattern of binding: Opioid Receptor peptides
Method: (§1) The method used was ultraviolet spectrophotometry, which is a sensitive way to test for the binding of pairs of molecules. Binding data obtained using this method have previously been validated by direct comparison to results of nuclear magnetic resonance, circular dichroism, capillary electrophoresis, and other physicochemical methods (e.g., [51, 87, 88, 89, 90]).
(§2) For each individual test, the concentration of the stock solution was calculated and then diluted to a 10 µM solution.
(§3) Thus, the final concentration of receptor peptide in each well varied from 0.5 mM to 0.05 pM while the other compound was held fixed at 5 µM.
The method of calculating binding constants was to measure the absorbance (minus the absorbance of the buffer) of 100 µL of each compound by itself diluted by 100 µL of buffer at a given wavelength (in this case at 200 nm) at the range of concentrations utilized in the experiments. The average of the resulting values is calculated. (If the experiments are run properly, there is very little variance—a couple of percent. If there was more variance than that, the experiment was re-run.) An “expected” value is calculated following Beer’s law, by adding the absorbances of each pair of compounds (peptide plus small molecule). The actual chemical combinations of these molecules was then run under identical conditions.
The difference between the “expected” and actual values was determined at each concentration of the varied compound. This difference was then plotted against the concentration of the varied compound. […] The binding constant was approximated by using the inflection point of the binding curve (i.e., the point at which the dissociation and association of the two molecules was equal). […] All data were analyzed using Microsoft Excel.
Because the resulting absorbances are the differences between the independently measured absorbances, it is not possible to calculate error bars or to perform statistics on the resulting values.

[8] = target: Adrenergic Receptor (beta 2 adrenergic receptor peptides) (Homo sapiens, UniProt P07550); assay: Overall pattern of binding: Adrenergic Receptor peptides
Method: as §1, §2, §3
(§4) The method of calculating binding constants was to measure the absorbance (minus the absorbance of the buffer) of 100 µL of each compound by itself diluted by 100 µL of buffer at a given wavelength (in this case at 200 nm) at the range of concentrations utilized in the experiments. The average of the resulting values is calculated. (If the experiments are run properly, there is very little variance—a couple of percent. If there was more variance than that, the experiment was re-run.) An “expected” value is calculated following Beer’s law, by adding the absorbances of each pair of compounds (peptide plus small molecule). […]
(§5) The difference between the “expected” and actual values was determined at each concentration of the varied compound. […]

[9] = target: Dopamine Receptor (dopamine 1 receptor peptides) (Homo sapiens, UniProt P21728); assay: Overall pattern of binding: Dopamine Receptor peptides
Method: as §1, §2, §3, §4, §5

[10] = target: Histamine Receptor (histamine 1 receptor peptides) (Homo sapiens, UniProt P35367); assay: biochemical; type: binding; details: first symbol of the cell
receptor peptides tested = assay: UV spectrophotometry binding to all peptides tested (summary)
Glutathione = assay: Overall pattern of binding: Glutathione (reduced and oxidized)
[11] = intrathecal delivery; cited from earlier work
[12] = target: dopamine 1 receptor peptide D1DR 96–98 FCN (Homo sapiens, UniProt P21728); assay: biochemical
[13] = target: T5, beta 2 adrenergic receptor peptide B2AR 97–103 KMWTFGN (Homo sapiens, UniProt P07550); assay: biochemical; type: binding
T5 construct: B2AR 97–103 KMWTFGN; purchased RS Synthesis (Louisville, KY, USA); host or cells: chemical synthesis

[14] = target: T6, beta 2 adrenergic receptor peptide B2AR 105–108 WCEF (Homo sapiens, UniProt P07550); assay: biochemical; type: binding
T6 construct: B2AR 105–108 WCEF; purchased RS Synthesis (Louisville, KY, USA); host or cells: chemical synthesis

[15] = test system: glutathione S-transferase A-5 and CYP3A2 expression in rat liver; parameters: method as in PMID 20487198; details: exposure to opioid; cited from earlier work

Opioid Receptor (mu opioid receptor peptides), sequence (P35372 with tags, fused parts or gaps): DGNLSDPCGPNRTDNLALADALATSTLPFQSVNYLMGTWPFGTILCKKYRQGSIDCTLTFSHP
Adrenergic Receptor (beta 2 adrenergic receptor peptides), sequence (P07550 with tags, fused parts or gaps): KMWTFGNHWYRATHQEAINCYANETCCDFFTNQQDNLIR
Dopamine Receptor (dopamine 1 receptor peptides), sequence (P21728 with tags, fused parts or gaps): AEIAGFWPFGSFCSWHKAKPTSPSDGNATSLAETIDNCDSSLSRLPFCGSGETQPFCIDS
Histamine Receptor (histamine 1 receptor peptides), sequence (P35367 with tags, fused parts or gaps): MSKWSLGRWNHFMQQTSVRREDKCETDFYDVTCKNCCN

Row | Structure (SMILES) | Kd [1] | Kd [2] | binding to adrenergic receptor peptide 183–185 (NCY), in words [3] | Kd [4] | Kd [5] | Kd [6] | Kd ([7]; first symbol of the cell) | Kd [10] | observable affinity of the peptides tested, in words (receptor peptides tested) | other results
1 | CC(=O)OCC[N+](C)(C)C [Acetylcholine, acetylcholine] | > 1000 µM | > 1000 µM | No binding was observed | > 1000 µM | > 1000 µM | > 1000 µM | > 60 µM | > 60 µM | none of the peptides tested had observable affinity | Kd ([8]; first symbol of the cell): > 60 µM; Kd ([9]; first symbol of the cell): > 60 µM
2 | OC[C@H]1OC(O)[C@H](O)[C@@H](O)[C@@H]1O (stereo partly drawn) [Glucose, glucose] | > 1000 µM | > 1000 µM | No binding was observed |  |  | > 1000 µM |  | > 60 µM | none of the peptides tested had observable affinity | binding to either reduced or oxidized glutathione, in words (Glutathione): do not bind appreciably; Kd [7]: > 60 µM; Kd [8]: > 60 µM; Kd [9]: > 60 µM
3 | CN1CC[C@]23c4c5ccc(O)c4O[C@H]2[C@@H](O)C=C[C@H]3[C@H]1C5 [Morphine, morphine sulfate] |  |  |  |  |  |  |  |  |  | transient cerebrospinal fluid concentrations [11]: approximately 25 µM; Kd [12]: 25 µM
4 | NCCc1c[nH]c2ccc(O)cc12 [Serotonin, serotonin] | 70 µM | > 1000 µM |  | 50 µM | 120 µM | 60 µM | > 60 µM |  |  | Kd [13]: 430 µM; Kd [14]: 45 µM
5 | COc1ccc2c3c1O[C@H]1C(=O)CC[C@@]4(O)[C@@H](C2)N(C)CC[C@]314 [oxycodone] |  |  |  |  |  |  |  |  |  | expression in rat liver of glutathione S-transferase A-5 [15]: greater than six-fold increase; expression of the cytochrome enzyme CYP3A2 [15]: decreased seven-fold
